Results as given in publication PMC3673949, “Small Molecule R1498 as a Well-Tolerated and Orally Active Kinase Inhibitor for Hepatocellular Carcinoma and Gastric Cancer Treatment via Targeting Angiogenesis and Mitosis Pathways” (PLoS ONE, 2013).
Like-named read-outs stand apart in the source and are kept apart here.

How the values were obtained:
[1] = test system: HUVEC (VEGF 165 stimulated); assay: VEGF-induced HUVEC proliferation assay; type: cell-based; conditions: Homo sapiens, 0.5% FBS with VEGF 165, 72 h
Protocol: Each cell line was seeded in a 96-well tissue culture plate (Corning, NY) at a predetermined density in 180 µL complete medium, attached overnight and treated by compound for another 72 h. Then the medium was discarded and replaced with 10% CCK-8 (Dojindo, Kumamoto, Japan) in complete medium, then incubated the plates for another 2 h. The OD450 was measured with SpectraMAX 190 spectrophotometer (MDS, Sunnyvale, CA). A background absorbance of ODblank was subtracted from all wells.
In VEGF-induced HUVEC proliferation assay, the HUVECs suspended in 170 µL EGM-2 with 0.5% FBS were seeded and incubated overnight. After the cells attached, 10 µL 1 µg/ml recombinant human VEGF 165 (R&D systems, Minneapolis, MN) was added to each well together with 20 µl compound solutions prepared in EGM-2 with 0.5% FBS. The CCK-8 assay as above was used for determination of cell viability.

[2] = Metabolite profile in pooled liver microsomes; type: in vitro ADME
Protocol: Supplementary file pone.0065264.s005.doc: Table S4 Metabolite profiles in pooled liver microsomes. Pooled liver microsomes were incubated with R1498 and the metabolites were identified to predict the most close species to human. (DOC) Click here for additional data file.

CD31 = assay: Immunohistochemistry of BEL-7402 tumors, angiogenesis marker; type: in vivo, BALB/C nu/nu nude mice; conditions: BEL-7402 tumors from efficacy study
Protocol: The 8 µm paraffin embedded tumor tissue slides prepared from tumor of in vivo efficacy studies were heated in a dry oven at 60°C for 1 hour, then deparaffinized and hydrolyzed by Leica autostainer XL ST5010 at room temperature. Antigen retrieval was carried out at 95∼99°C in citrate buffer (0.01 M, pH 6.0) heated by a medical microwave at 92–98°C for 5 min, then cooled down to room temperature. Then peroxidase-blocking reagent (DAKO, DK-2600, Glostrup Denmark) was applied to quench the endogenous peroxidase. The slides were incubated in blocking serum for 20 min, then covered by 100 µL phospho-Aurora A (Thr288) (C39D8) rabbit mAb (CST #3079, 1∶200 in TBS/T) or rabbit anti-human CD31 polyclonal antibody (Santa Cruz Biotech, sc-8306, Santa Cruz, CA, USA; 1∶200 in TBS/T) at 4°C overnight, then incubated in 100 µL DAKO Envision+/HRP, rabbit/mouse after being washed thoroughly with TBS. One hundred micro liters of substrate-chromogenic solution (DAB) were applied to the slides and incubated at room temperature for 10 min. The slides were rinsed gently with tap water for 15 min. Counterstain and dehydration was performed by XL ST5010 at room temperature. Finally, the slides were mounted with Permount mounting medium (Fisher Scientific, Miami, FL).

GC16 xenograft = assay: Patient primary gastric tumor derived xenograft; type: in vivo, BALB/C nu/nu nude mice; conditions: GC16, 25 mpk bid, p.o.
Protocol: (§1) In human primary tumor models, fresh human gastric tumor tissues were directly implanted into nonobese diabetic and severe combined immune-deficient (NOD-SCID) mice within 5 hours post-surgery with 5 mm^3 fragments to establish primary tumor xenograft models. […] Treatment began when tumor volume reached 100∼150 mm^3. The tumor measurement and operation protocol was the same as cell line derived tumor model.

GC318 xenograft = assay: Patient primary gastric tumor derived xenograft; type: in vivo, BALB/C nu/nu nude mice; conditions: GC318, 25 mpk bid, p.o.
Protocol: as §1

[3] = Dose range finding and toxicokinetic study; type: in vivo
Protocol: (§2) Dose range finding and toxicokinetic study was carried out in rats and Beagle dogs based on in vitro metabolites identification. Wistar rats (male: 3, female 3 in each group, from Vital River, Beijing, China) were fasted overnight, and then received test articles as 0, 6.25, 50 and 100 mg/kg twice a day per oral gavage for a 14-day continuous regimen. Motility observation was applied on a daily bases to find the maximum tolerant dose for the animals. The animals were sacrificed on d14, and the following toxicology observation were carried out including body weight changes, clinical observation, gross necropsy, hematology chemistry and histopathology. On day 1 and day 14, blood samples were obtained via jugular vein puncture from all animals (if alive, using EDTA-K2 tubes). Samples were mixed gently and placed on crushed wet-ice until centrifugation, which was carried out immediately. The samples were centrifuged for approximately 15 minutes at 4°C 2,700 rpm. The resultant plasma was separated, transferred to uniquely labeled clear polypropylene tubes and frozen immediately over solid carbon dioxide (dry ice) until transferred to approximately −80°C. Each animal was bled at the following time points: approximately 5 min, 15 min, 30 min, 1, 2, 4, 8 and 24 hours post first dose on the specific day. The drug concentrations in the plasma were determined by LC-MS/MS. The pharmacokinetic analysis was performed using WinNonlin software (Version 5.2, Pharsight Corporation, CA, USA), and the pharmacokinetic parameters were calculated using a Non-compartmental model method.
Beagle dogs (approximately 8–10 months, from Beijing Marshall Biotechnology Co. Ltd., Beijing, China) were subjected to the study protocol as described above. Each group has one male and one female dog, the dosages of test article were: 0, 1, 7.5 and 15 mg/kg, respectively.

HUVEC = HUVEC tube formation assay; type: cell-based, human
HGC-27 xenograft = assay: Xenograft efficacy study; type: in vivo, BALB/C nu/nu nude mice; conditions: HGC-27, 25 mg/kg twice a day per oral gavage
Protocol: (§3) Tumor cells were inoculated into the right flank of BALB/C nu/nu female nude mice (5∼6 weeks, 16∼18 g, obtained from Sino-British SIPPR/BK Lab. Animal Ltd, Shanghai, China) at optimal density based on our in-house validation study. After the tumor was established and reached 100∼150 mm^3, the mice were randomized into ten mice per group and received treatment according to the schedule. The tumor growth was recorded three times a week with the measurement of length (L) and width (W) by caliper, and calculated as tumor volume (TV, mm^3) = 0.5*L*W*W (mm). […] The tumor regression of individual mouse was defined - the tumor volume at the end was less than the tumor volume when treatment was initiated.

[4] = Dose range finding and toxicokinetic study; type: in vivo; conditions: for MTD at 2 week / AUC(0-t): po
Protocol: as §2

[5] = test system: cyclin-dependent kinase 2 (CDK2); set-up: method as in PMID 20832307; conditions: previously identified; cited from earlier work
MGC-803 xenograft = assay: Xenograft efficacy study; type: in vivo, BALB/C nu/nu nude mice; conditions: MGC-803, 25 mg/kg twice a day per oral gavage
Protocol: as §3

## COc1ccc2c(c1)C(c1ccccc1Cl)=Nc1c(n[nH]c1C)N2 [R1498]
[1]
  IC50: 0.089 µM
[2]; Dog pooled liver microsomes
  Parent (M0): 99.0
  Total M%: 1.0%
[2]; Human pooled liver microsomes
  Parent (M0): 91.9
  Total M%: 8.1%
[2]; Monkey pooled liver microsomes
  Parent (M0): 43.3
  Total M%: 56.7%
[2]; Mouse pooled liver microsomes
  Parent (M0): 94.8
  Total M%: 5.2%
[2]; Rat pooled liver microsomes
  Parent (M0): 90.8
  Total M%: 9.2%
CD31
  CD31 staining in tumors: decreased in a dose-dependent manner
GC16 xenograft
  Regression: 3/10
  TGI%: 89.3%
GC318 xenograft
  Regression: 1/10
  TGI%: 91.6%
[3]; both sexes, dog, in vivo, po, beagle dogs (F/M), 2-week DRF, bid dosing
  MTD at 2 week: > 15 mg/kg
[3]; both sexes, dog, plasma, po, 15 mg/kg, beagle dogs, at highest dose, read-out: MTD AUC0-24
  AUC(0-t): > 111 µg·h/mL
[3]; dogs, 0, 1, 7.5, 15 mg/kg, 2-week DRF
  Histopathology results: no significant findings at all doses
[3]; female dog
  dose at which body weight loss began: 7.5 mg/kg
HUVEC; 8 hr exposure, data not shown
  HUVEC proliferation under tube formation treatment condition: didn’t affect HUVEC proliferation
HUVEC; HUVEC on Matrigel, 3 µM, 8 h, vs DMSO
  tube formation: formed fewer intact tube meshes
HGC-27 xenograft; day of study termination
  Final TGI%: 85%
HGC-27 xenograft; before vs after treatment
  Body weight changes%: 6%
HGC-27 xenograft; mice with regression/group
  Tumor Regression: 0/10
[4]; female rats
  dose at which body weight loss began: 12.5 mg/kg
[4]; female, Wistar, rat, in vivo
  MTD AUC / ED90 AUC: 8.1
  MTD at 2 week: 50 mg/kg
[4]; female, Wistar, rat, in vivo, 50 mg/kg
  AUC(0-t): 211 µg·h/mL
[4]; male rats
  dose at which body weight loss began: 100 mg/kg
[4]; male, Wistar, rat, in vivo
  MTD at 2 week: > 100 mg/kg
[4]; male, Wistar, rat, in vivo, 100 mg/kg
  AUC(0-t): > 155 µg·h/mL
[5]
  CDK2 inhibition: weak
MGC-803 xenograft; day of study termination
  Final TGI%: 99%
MGC-803 xenograft; before vs after treatment
  Body weight changes%: 14%
MGC-803 xenograft; mice with regression/group
  Tumor Regression: 5/10
